We go through one compound from patent US20030130484A1, “Inhibitors and disassemblers of fibrillogenesis” (priority 2001, published 2003).

One data set concerns the target PrP106-126 (Homo sapiens, UniProt P04156). The class given is biochemical.
The next data set is described as follows: Calcein leakage assay. The class given is in vitro ADME. The arrangement: calcein escaped from the vesicles: dose or concentration left out as unconfirmed. The method, then: The leakage of vesicle contents was monitored by measuring the release of calcein (Terzi et al., 1995 and Pillot et al, 1996). Vesicles were prepared and separated from free calcein as described above for the radioactive compounds, except that the rehydration buffer contained […] calcein and 10 mM Na-EDTA. In the kinetic assay, peptide was added to the vesicle solution and the fluorescence was measured at ten minute intervals with excitation and emission wavelengths of 490 and 520 nm, respectively. Data were fit to an equation for a first order rate process. For the concentration dependence assay, different amounts of peptide were added to the vesicle solution and the fluorescence was measured after a two hour incubation at 37° C. The maximum leakage was determined by lysing the vesicles with the addition of 0.5% (w/v) Triton X-100.
The leakage of vesicle contents was monitored by measuring the release of calcein (Terzi et al., 1995; Pillot et al., 1996). Vesicles were prepared and separated from free calcein as described herein for the radioactive compounds, except that the rehydration buffer contained 40 mM calcein and 1 mM Na-EDTA. […] The maximum fluorescence was measured by lysing the vesicles with the addition of 0.1% (w/v) Triton X-100.

In another data set the target is Aβ40 (Homo sapiens, UniProt P05067). The data set can be described thus: Inhibition of Aβ40 fibrillogenesis, thioflavin T fluorescence assay. It counts as biochemical.
Data set [1] in a line: Solubility in aqueous media and organic solvents.
A short description of data set [2]: Circular dichroism under denaturing conditions (urea, pH, GuHCl, temperature). Particulars: pH 2.5-10.5, 8M GuHCl, 20° and 70° C. The class given is physicochemical. The method, then:
A 1 mm or 0.1 mm pathlength cell was used for measurements, depending on the concentration of the solution. Six to eight scans were acquired from 250 nm to 200 nm. For the pH experiment, a 100 mM phosphate-citrate buffer was used for pH 2.5-6.5, a 100 mM phosphate buffer was used for pH 7.5-8.5 and a 100 mM glycine-NaOH buffer was used for pH 9.5-10.5.
The circular dichroic (CD) spectra were recorded using a Jasco P715 spectropolarimeter. […] A 1 mm or 0.1 mm pathlength cell was used for measurements, depending on the concentration of the solution. Six to eight scans were acquired from 250 nm to 200 nm. For the pH experiment, a 100 mM phosphate-citrate buffer was used for pH 2.5-6.5, a 100 mM phosphate buffer was used for pH 7.5-8.5 and a 100 mM glycine-NaOH buffer was used for pH 9.5-10.5. For the urea denaturation experiment, Ad 16-20m was dissolved in 100 mM phosphate buffer pH 7.4 with 0-8.5 M urea.
For orientation: Circular dichroism is the unequal absorption of left and right circularly polarised light.

In another data set the target is Aβ40 fibrils (Homo sapiens, UniProt P05067).
Chain of Aβ40 fibrils (P05067 672-711): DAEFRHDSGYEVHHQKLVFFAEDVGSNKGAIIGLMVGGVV

Chain of Aβ40 (P05067 672-711): as above
Chain of PrP106-126 (P04156 106-126 limits assumed): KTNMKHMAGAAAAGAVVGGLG

As for `CC(=O)N[C@@H](CCCCN)C(=O)N(C)[C@@H](CC(C)C)C(=O)N[C@H](C(=O)N(C)[C@@H](Cc1ccccc1)C(=O)N[C@@H](Cc1ccccc1)C(N)=O)C(C)C` [Aβ16-20m, Ac—NH—K(me-L)V(me-F)F—CONH2], the “inhibition of fibril formation by PrP106-126” value against PrP106-126 is given as “ineffective”. Further, the “leakage of calcein from vesicles (in words)” value in the data set “Calcein leakage assay” is “causes the leakage of calcein”. Besides, the “calcein escaped from the vesicles” value in “Calcein leakage assay” (highest concentration tested) is 82%. Also, the calcein efflux result in “Calcein leakage assay” (low micromolar concentrations of peptide) was “less than 10%”. Further, the “effect on Aβ40 fibril formation (in words)” value at Aβ40 is given as “highly effective inhibitor”. Further, in data set [1], the solubility was ≥ 30 mM and the “solubility in aqueous media (in words)” value is on record as “highly soluble in aqueous media”. Moreover, the “solubility in organic solvents (in words)” value in data set [1] (DMF, diethyl ether, methylene chloride, chloroform) is “highly soluble”. The “stability of peptide structure by CD (mean residue ellipticity at 226 nm)” value in data set [2] is “extremely stable and resistant to chemical denaturation”. The compound further yielded a half-life at Aβ40 fibrils of 24 ± 7 min.

For orientation: solubility means how much of the substance goes into solution per volume.
